Results from ChEMBL document CHEMBL5550222, “Synthesis and Biological Evaluation of Novel Psidium Meroterpenoid Derivatives against Cisplatin-Induced Acute Kidney Injury” (J Med Chem, 2024).
Activity calls are given as the source filed them.

Columns and labels:
HK-2 [1] = assay: Protection against cisplatin-induced apoptosis in human HK-2 cells preincubated with compound for 2 hrs followed by cisplatin induction and measured after 48 hrs by FITC/PI staining based flow cytometry analysis; format: functional, cell-based; details: dose 2.5-10 µM, time 50.0 hrs
HK-2 [2] = assay: Effect on OCT2 mRNA level in human HK-2 cells by transcriptome sequencing analysis; format: functional, cell-based
HK-2 [3] = assay: Effect on ATP7B mRNA level in human HK-2 cells by transcriptome sequencing analysis; format: functional, cell-based; details: dose 2.5-10 µM
HK-2 [4] = assay: Induction of autophagy in human HK-2 cells assessed as upregulation of PI3K class III expression at 2.5 to 10 uM by Western blotting analysis; format: functional, cell-based; details: dose 2.5-10 µM
Lewis lung carcinoma [5] = assay: Cytotoxicity against mouse Lewis lung carcinoma cell line; format: functional, cell-based
Lewis lung carcinoma [6] = assay: Antitumor activity against cisplatin-induced mouse Lewis lung carcinoma cell line xenografted C57BL/6J mouse assessed as inflammatory cell infiltration at 25 to 50 mg/kg, po preadministered with compound for 2 days followed by cisplatin addition on day 3 and measured 72 hrs post cisplatin administration by H and E staining based analysis; format: functional, organism-based; details: dose 25-50 mg/kg, time 5.0 day
HK-2 [7] = assay: Induction of autophagy in human HK-2 cells assessed as […] at 2.5 to 10 uM by Western blotting analysis; format: functional, cell-based; details: dose 2.5-10 µM
HK-2 [8] = assay: Effect on SLC47A1 mRNA level in human HK-2 cells by transcriptome sequencing analysis; format: functional, cell-based
HK-2 [9] = assay: Protection against cisplatin-induced apoptosis in human HK-2 cells assessed as reduction in BAX expression preincubated with compound for 2 hrs followed by cisplatin induction and measured after 48 hrs by Western blotting analysis; format: functional, cell-based; details: dose 2.5-10 µM, time 50.0 hrs
NCI-H460 = assay: Cytotoxicity against human NCI-H460 cells; format: functional, cell-based
HK-2 [10] = assay: Upregulation of AKT gene expression in human HK-2 cells by KEGG analysis; format: functional, cell-based
Cell membrane [11] = assay: Induction of mitochondrial membrane potential loss in human HK-2 cells assessed as increase in ATP5A1 expression by Western blot analysis; format: cell membranes; details: dose 2.5-10 µM
Mus musculus [12] = assay: Protection against cisplatin-induced nephrotoxicity in po dosed C57BL6/J mouse assessed as reduction in SCR level in kidney Preadministered with compound for 2 days followed by cisplatin addition on day 3 and measured 72 hrs post cisplatin administration; format: functional, organism-based; details: dose 25-100 mg/kg, time 5.0 day
[13] = Antitumor activity against cisplatin-induced mouse Lewis lung carcinoma cell line xenografted C57BL/6J mouse assessed as reduction in tumor mass at 25 to 50 mg/kg, po preadministered with compound for 2 days followed by cisplatin addition on day 3 and measured 72 hrs post cisplatin administration; format: functional; parameters: scale not given: the % may be the effect or the level left; details: dose 25-50 mg/kg, time 5 day
Mus musculus [14] = assay: Protection against cisplatin-induced nephrotoxicity in C57BL6/J mouse assessed as reduction in infiltration of inflammatory cells at 100 mg/kg, po preadministered with compound for 2 days followed by cisplatin addition on day 3 and measured 72 hrs post cisplatin administration by H and E staining based analysis; format: functional, organism-based; details: time 5.0 day
HK-2 [15] = assay: Protection against cisplatin-induced apoptosis in human HK-2 cells assessed as reduction in cleaved caspase 3 expression preincubated with compound for 2 hrs followed by cisplatin induction and measured after 48 hrs by Western blot analysis; format: functional, cell-based; details: dose 2.5-10 µM, time 50.0 hrs
HK-2 [16] = assay: Induction of autophagy in human HK-2 cells assessed as upregulation of LC3II expression at 2.5 to 10 uM by Western blotting analysis; format: functional, cell-based; details: dose 2.5-10 µM
HK-2 [17] = assay: Inhibition of cisplatin-induced DNA damage in human HK-2 cells assessed as […] in comet tail length by comet assay; format: functional, cell-based; details: dose 2.5-10 µM
Cell membrane [18] = assay: Induction of mitochondrial membrane potential loss in human HK-2 cells assessed as increase in OPA1 expression by Western blot analysis; format: cell membranes; details: dose 2.5-10 µM
Lewis lung carcinoma [19] = assay: Antitumor activity against cisplatin-induced mouse Lewis lung carcinoma cell line xenografted in po dosed C57BL/6J mouse assessed as reduction in BUN level in serum preadministered with compound for 2 days followed by cisplatin addition on day 3 and measured 72 hrs post cisplatin administration; format: functional, organism-based; details: dose 25-100 mg/kg, time 5.0 day
HK-2 [20] = assay: Effect on OCT1 mRNA level in human HK-2 cells by transcriptome sequencing analysis; format: functional, cell-based
Lewis lung carcinoma [21] = assay: Antitumor activity against cisplatin-induced mouse Lewis lung carcinoma cell line xenografted C57BL/6J mouse assessed as reduction in tumor mass at 25 to 100 mg/kg, po preadministered with compound for 2 days followed by cisplatin addition on day 3 and measured 72 hrs post cisplatin administration; format: functional, organism-based; details: dose 25-100 mg/kg, time 5.0 day
Cell membrane [22] = assay: Induction of mitochondrial membrane potential loss in human HK-2 cells assessed as increase in sirtuin 3 expression by Western blot analysis; format: cell membranes; details: dose 2.5-10 µM
HK-2 [23] = assay: Protection against cisplatin-induced apoptosis in human HK-2 cells assessed as improvement in cell number preincubated with compound for 2 hrs followed by cisplatin induction and measured after 48 hrs by light microscopic analysis; format: functional, cell-based; details: dose 2.5-10 µM, time 50.0 hrs
HK-2 [24] = assay: Upregulation of ATP7B level in human HK-2 cells at 2.5 to 10 uM by Western blot analysis; format: functional, cell-based; details: dose 2.5-10 µM
HK-2 [25] = assay: Upregulation of ATP7A mRNA level in human HK-2 cells at 2.5 to 10 uM by RT-qPCR analysis; format: functional, cell-based; details: dose 2.5-10 µM
Mus musculus [26] = assay: Protection against cisplatin-induced nephrotoxicity in C57BL6/J mouse assessed as reduction in BUN level in kidney at 25 to 100 mg/kg, po preadministered with compound for 2 days followed by cisplatin addition on day 3 and measured 72 hrs post cisplatin administration; format: functional, organism-based; details: dose 25-100 mg/kg, time 5.0 day
HK-2 [27] = assay: Reduction in intracellular cisplatin accumulation in human HK-2 cells by ICP-MS analysis; format: functional, cell-based; details: dose 2.5-10 µM
HK-2 [28] = assay: Upregulation of AMPK gene expression in human HK-2 cells by KEGG analysis; format: functional, cell-based
HK-2 [29] = assay: Effect on ATP7A mRNA level in human HK-2 cells by transcriptome sequencing analysis; format: functional, cell-based; details: dose 2.5-10 µM
HK-2 [30] = assay: Upregulation of ATP7B mRNA level in human HK-2 cells at 2.5 to 10 uM by RT-qPCR analysis; format: functional, cell-based; details: dose 2.5-10 µM
HK-2 [31] = assay: Protection against cisplatin-induced apoptosis in human HK-2 cells assessed as improvement in cell morphology preincubated with compound for 2 hrs followed by cisplatin induction and measured after 48 hrs by light microscopic analysis; format: functional, cell-based; details: dose 2.5-10 µM, time 50.0 hrs
HCT-116 = assay: Cytotoxicity against human HCT-116 cells; format: functional, cell-based
NCI-H1299 = assay: Cytotoxicity against human NCI-H1299 cells; format: functional, cell-based
HK-2 [32] = assay: Induction of autophagy in human HK-2 cells assessed as upregulation of beclin1 expression at 2.5 to 10 uM by Western blotting analysis; format: functional, cell-based; details: dose 2.5-10 µM
HK-2 [33] = assay: Upregulation of ATP7A level in human HK-2 cells at 2.5 to 10 uM by Western blot analysis; format: functional, cell-based; details: dose 2.5-10 µM
HK-2 [34] = assay: Upregulation of PI3K gene expression in human HK-2 cells by KEGG analysis; format: functional, cell-based
HK-2 [35] = assay: Inhibition of cisplatin-induced DNA damage in human HK-2 cells assessed as reduction in p-histone-H2AX level at 2.5 to 10 uM by Western blot analysis; format: functional, cell-based; details: dose 2.5-10 µM
HK-2 [36] = assay: Effect on MRP1 mRNA level in human HK-2 cells by transcriptome sequencing analysis; format: functional, cell-based
HK-2 [37] = assay: Induction of autophagy in human HK-2 cells assessed as upregulation of AMPKalpha expression at 2.5 to 10 uM by Western blotting analysis; format: functional, cell-based; details: dose 2.5-10 µM
HK-2 [38] = assay: Upregulation of CTR1 mRNA level in human HK-2 cells at 2.5 to 10 uM by RT-qPCR analysis; format: functional, cell-based; details: dose 2.5-10 µM

COc1c(CO)c(OC)c(C(=O)c2ccccc2)c2c1C[C@H]1CC/C(C)=C/CC(C)(C)/C=C/C[C@]1(C)O2
active: Activity (HK-2 [1]) Dose-Dependent Effect | Activity (HK-2 [3]) Dose-Dependent Effect | Activity (HK-2 [4]) | Activity (Lewis lung carcinoma [5]) | Activity (Lewis lung carcinoma [6]) | Activity (HK-2 [7]) | Activity (HK-2 [9]) Dose-Dependent Effect | Activity (NCI-H460) | Activity (HK-2 [10]) | Activity (Cell membrane [11]) | Activity (Mus musculus [12]) Dose-Dependent Effect | Activity (Mus musculus [14]) | Activity (HK-2 [15]) Dose-Dependent Effect | Activity (HK-2 [16]) | inhibition (HK-2 [17]) Dose-Dependent Effect | Activity (Cell membrane [18]) | Activity (Lewis lung carcinoma [19]) | Activity (Lewis lung carcinoma [21]) | Activity (Cell membrane [22]) | Activity (HK-2 [23]) Dose-Dependent Effect | Activity (HK-2 [24]) | Activity (HK-2 [25]) | Activity (Mus musculus [26]) | Activity (HK-2 [27]) Dose-Dependent Effect | Activity (HK-2 [28]) | Activity (HK-2 [29]) Dose-Dependent Effect | Activity (HK-2 [30]) | Activity (HK-2 [31]) Dose-Dependent Effect | Activity (HCT-116) | Activity (NCI-H1299) | Activity (HK-2 [32]) | Activity (HK-2 [33]) | Activity (HK-2 [34]) | inhibition (HK-2 [35]) | Activity (HK-2 [37]) | Activity (HK-2 [38])
inactive: Activity (HK-2 [2]) | Activity (HK-2 [8]) | Activity (HK-2 [20]) | Activity (HK-2 [36])
28.1%: Activity [13]

COc1c(C=O)c(OC)c(C(=O)c2ccccc2)c2c1CC1CC/C(C)=C/CC(C)(C)/C=C/CC1(C)O2 (configuration not stated)
inactive: Activity (HK-2 [2]) | Activity (HK-2 [8]) | Activity (HK-2 [20]) | Activity (HK-2 [36])
active: Activity (HK-2 [1]) Dose-Dependent Effect | Activity (HK-2 [3]) Dose-Dependent Effect | Activity (HK-2 [4]) | Activity (Lewis lung carcinoma [5]) | Activity (Lewis lung carcinoma [6]) | Activity (HK-2 [7]) | Activity (HK-2 [9]) Dose-Dependent Effect | Activity (NCI-H460) | Activity (HK-2 [10]) | Activity (Cell membrane [11]) | Activity (Mus musculus [12]) Dose-Dependent Effect | Activity (Mus musculus [14]) | Activity (HK-2 [15]) Dose-Dependent Effect | Activity (HK-2 [16]) | inhibition (HK-2 [17]) Dose-Dependent Effect | Activity (Cell membrane [18]) | Activity (Lewis lung carcinoma [19]) | Activity (Lewis lung carcinoma [21]) | Activity (Cell membrane [22]) | Activity (HK-2 [23]) Dose-Dependent Effect | Activity (HK-2 [24]) | Activity (HK-2 [25]) | Activity (Mus musculus [26]) | Activity (HK-2 [27]) Dose-Dependent Effect | Activity (HK-2 [28]) | Activity (HK-2 [29]) Dose-Dependent Effect | Activity (HK-2 [30]) | Activity (HK-2 [31]) Dose-Dependent Effect | Activity (HCT-116) | Activity (NCI-H1299) | Activity (HK-2 [32]) | Activity (HK-2 [33]) | Activity (HK-2 [34]) | inhibition (HK-2 [35]) | Activity (HK-2 [37]) | Activity (HK-2 [38])
31.4%: Activity [13]
